For experiment [1], the target named is T1, TRPV1 (Homo sapiens, UniProt Q8NER1). It is filed as cell-based.
The target of experiment [2] is T1, TRPV1. The experiment in a line: whole-cell patch clamp, agonist current at […]. It counts as cell-based. (In general: The patch-clamp technique gives a direct electrical read-out from membranes.)

SMILES strings stand for the structures.

T1 sequence (Q8NER1 whole entry): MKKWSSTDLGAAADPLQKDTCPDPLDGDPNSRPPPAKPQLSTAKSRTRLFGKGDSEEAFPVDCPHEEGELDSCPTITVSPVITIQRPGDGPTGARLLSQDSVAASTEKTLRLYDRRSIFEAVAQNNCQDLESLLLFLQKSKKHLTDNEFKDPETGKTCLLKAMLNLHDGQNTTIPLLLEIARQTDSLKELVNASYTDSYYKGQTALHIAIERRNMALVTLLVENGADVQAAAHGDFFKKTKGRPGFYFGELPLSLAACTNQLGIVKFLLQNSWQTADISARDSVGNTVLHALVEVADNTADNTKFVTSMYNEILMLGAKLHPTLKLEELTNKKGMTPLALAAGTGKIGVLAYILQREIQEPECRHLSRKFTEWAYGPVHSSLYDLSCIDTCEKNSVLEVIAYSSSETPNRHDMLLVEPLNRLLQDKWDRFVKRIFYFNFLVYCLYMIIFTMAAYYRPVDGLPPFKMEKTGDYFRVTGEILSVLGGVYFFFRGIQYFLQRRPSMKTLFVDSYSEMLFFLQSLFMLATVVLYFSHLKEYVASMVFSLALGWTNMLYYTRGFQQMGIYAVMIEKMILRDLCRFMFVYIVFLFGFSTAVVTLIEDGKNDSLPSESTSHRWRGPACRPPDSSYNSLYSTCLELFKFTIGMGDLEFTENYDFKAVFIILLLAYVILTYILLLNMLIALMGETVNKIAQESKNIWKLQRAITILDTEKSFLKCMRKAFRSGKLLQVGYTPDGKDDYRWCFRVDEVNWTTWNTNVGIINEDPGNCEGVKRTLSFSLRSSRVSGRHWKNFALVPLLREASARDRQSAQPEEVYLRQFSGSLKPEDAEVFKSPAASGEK

The IC50 is the point on the concentration scale where inhibition reaches its midpoint. Lower therefore signals greater potency in that assay. For the compound `C=C1CC[C@H](O)C/C1=C/C=C1\CCC[C@]2(C)[C@@H]([C@H](C)CCCC(C)(C)O)CC[C@@H]12` [25OHD, 25-Hydroxyvitamin D], in experiment [1], half-maximal inhibition (IC50) required 34.3 ± 0.2 nM.

`CCCCCCCC/C=C\CCCCCCCC(=O)NCCc1ccc(O)c(O)c1` [OLDA, N-oleoyldopamine]: the “whole-cell patch clamp, agonist current at 1 μM” value in experiment [2] is “OLDA elicited whole‐cell currents that displayed similar kinetics to that observed with capsaicin”.

For the origin of these results see PMC7589233 (The Journal of Physiology, 2020).
